Results published in US20230123334A1, “AMINO LIPID COMPOUND, PREPARATION METHOD THEREFOR, AND APPLICATION THEREOF” (SHENZHEN SHENXIN BIOTECHNOLOGY CO., LTD., priority 2020, published 2023).

System: HEK293 cells
Assay: Preliminary screening as DNA vectors, GFP transfection of HEK293 cells
Format: cell-based
Conditions: amino lipid/DOPE liposome with 75 ng plasmid DNA (psin-EGFP-IRES-Puro); number of GFP-expressing cells divided by total nuclei (Hoechst)
How it was run: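 Lipid + DOPE liposomes (NaOAc, pH 5.6) complexed w/ 75 ng psin-EGFP-IRES-Puro, 30 min RT; added to 3-5×10^4 HEK293/well, 37° C. Hoechst 0.2 μg/mL at 20-24 h, imaged after further 20-24 h. Efficiency = GFP+ cells / total nuclei.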

| SMILES | Absolute DNA transfection efficiency in HEK293 cells |
| --- | --- |
| CCCCCCCCCCCSc1nc(NCCCCCC)nc(NCCN2CCCCC2)n1 [S11N6 D4] | 29.0% |
| CCCCCCCCCCCSc1nc(NCCCCCC)nc(NCCN2CCN(C)CC2)n1 [S11N6 D5] | 21.6% |
| CCCCCCCCCCCSc1nc(NCCCCCC)nc(NCCCN(C)C)n1 [S11N6 D6] | 29.3% |
| CCCCCCCCCCCSc1nc(NCCCCCC)nc(NCCN(CC)CC)n1 [S11N6 D7] | 25.0% |
| CCCCCCCCCCCSc1nc(NCCCCCC)nc(NCCCN2CCOCC2)n1 [S11N6 D8] | 13.3% |
| CCCCCCCCCCCSc1nc(NCCCCCC)nc(NCCCN2CCN(C)CC2)n1 [S11N6 D9] | 13.5% |
| CCCCCCCCCCCSc1nc(NCCCCCC)nc(NCC2CCN(C)CC2)n1 [S11N6 D10] | 8.8% |
| CCCCCCCCCCCSc1nc(NCCCCCCC)nc(NCCN(C)C)n1 [S11N7 D1] | 27.6% |
| CCCCCCCCCCCSc1nc(NCCCCCCC)nc(NCCN2CCOCC2)n1 [S11N7 D2] | 11.7% |
| CCCCCCCCCCCSc1nc(NCCCCCCC)nc(NCCN2CCCC2)n1 [S11N7 D3] | 19.4% |
| CCCCCCCCCCCSc1nc(NCCCCCCC)nc(NCCN2CCCCC2)n1 [S11N7 D4] | 4.6% |
| CCCCCCCCCCCSc1nc(NCCCCCCC)nc(NCCN2CCN(C)CC2)n1 [S11N7 D5] | 22.8% |
| CCCCCCCCCCCSc1nc(NCCCCCCC)nc(NCCCN(C)C)n1 [S11N7 D6] | 34.0% |
| CCCCCCCCCCCSc1nc(NCCCCCCC)nc(NCCN(CC)CC)n1 [S11N7 D7] | 11.6% |
| CCCCCCCCCCCSc1nc(NCCCCCCC)nc(NCCCN2CCOCC2)n1 [S11N7 D8] | 13.4% |
| CCCCCCCCCCCSc1nc(NCCCCCCC)nc(NCCCN2CCN(C)CC2)n1 [S11N7 D9] | 16.1% |
| CCCCCCCCCCCSc1nc(NCCCCCCC)nc(NCC2CCN(C)CC2)n1 [S11N7 D10] | 28.5% |
| CCCCCCCCCCCSc1nc(NCCCCCCCC)nc(NCCN(C)C)n1 [S11N8 D1] | 19.8% |
| CCCCCCCCCCCSc1nc(NCCCCCCCC)nc(NCCN2CCOCC2)n1 [S11N8 D2] | 18.6% |
| CCCCCCCCCCCSc1nc(NCCCCCCCC)nc(NCCN2CCCC2)n1 [S11N8 D3] | 26.0% |
| CCCCCCCCCCCSc1nc(NCCCCCCCC)nc(NCCN2CCCCC2)n1 [S11N8 D4] | 5.9% |
| CCCCCCCCCCCSc1nc(NCCCCCCCC)nc(NCCN2CCN(C)CC2)n1 [S11N8 D5] | 19.3% |
| CCCCCCCCCCCSc1nc(NCCCCCCCC)nc(NCCCN(C)C)n1 [S11N8 D6] | 36.9% |
| CCCCCCCCCCCSc1nc(NCCCCCCCC)nc(NCCN(CC)CC)n1 [S11N8 D7] | 10.1% |
| CCCCCCCCCCCSc1nc(NCCCCCCCC)nc(NCCCN2CCOCC2)n1 [S11N8 D8] | 12.2% |

| SMILES | Absolute DNA transfection efficiency in HEK293 cells |
| --- | --- |
| CCCCCCCCCCCSc1nc(NCCCCCCCC)nc(NCCCN2CCN(C)CC2)n1 [S11N8 D9] | 23.6% |
| CCCCCCCCCCCSc1nc(NCCCCCCCC)nc(NCC2CCN(C)CC2)n1 [S11N8 D10] | 33.4% |
| CCCCCCCCCCCSc1nc(NCCCCCCCCC)nc(NCCN(C)C)n1 [S11N9 D1] | 12.1% |
| CCCCCCCCCCCSc1nc(NCCCCCCCCC)nc(NCCN2CCOCC2)n1 [S11N9 D2] | 13.6% |
| CCCCCCCCCCCSc1nc(NCCCCCCCCC)nc(NCCN2CCCC2)n1 [S11N9 D3] | 23.1% |
| CCCCCCCCCCCSc1nc(NCCCCCCCCC)nc(NCCN2CCCCC2)n1 [S11N9 D4] | 1.1% |
| CCCCCCCCCCCSc1nc(NCCCCCCCCC)nc(NCCN2CCN(C)CC2)n1 [S11N9 D5] | 20.5% |
| CCCCCCCCCCCSc1nc(NCCCCCCCCC)nc(NCCCN(C)C)n1 [S11N9 D6] | 40.1% |
| CCCCCCCCCCCSc1nc(NCCCCCCCCC)nc(NCCN(CC)CC)n1 [S11N9 D7] | 2.0% |
| CCCCCCCCCCCSc1nc(NCCCCCCCCC)nc(NCCCN2CCOCC2)n1 [S11N9 D8] | 8.6% |
| CCCCCCCCCCCSc1nc(NCCCCCCCCC)nc(NCCCN2CCN(C)CC2)n1 [S11N9 D9] | 22.4% |
| CCCCCCCCCCCSc1nc(NCCCCCCCCC)nc(NCC2CCN(C)CC2)n1 [S11N9 D10] | 32.5% |
| CCCCCCCCCCCNc1nc(NCCN(C)C)nc(SCCCCCCCCCCC)n1 [S11N11 D1] | 17.8% |
| CCCCCCCCCCCNc1nc(NCCN2CCOCC2)nc(SCCCCCCCCCCC)n1 [S11N11 D2] | 6.3% |
| CCCCCCCCCCCNc1nc(NCCN2CCCC2)nc(SCCCCCCCCCCC)n1 [S11N11 D3] | 23.4% |
| CCCCCCCCCCCNc1nc(NCCN2CCCCC2)nc(SCCCCCCCCCCC)n1 [S11N11 D4] | 1.0% |
| CCCCCCCCCCCNc1nc(NCCN2CCN(C)CC2)nc(SCCCCCCCCCCC)n1 [S11N11 D5] | 10.1% |
| CCCCCCCCCCCNc1nc(NCCCN(C)C)nc(SCCCCCCCCCCC)n1 [S11N11 D6] | 22.8% |
| CCCCCCCCCCCNc1nc(NCCN(CC)CC)nc(SCCCCCCCCCCC)n1 [S11N11 D7] | 6.8% |
| CCCCCCCCCCCNc1nc(NCCCN2CCOCC2)nc(SCCCCCCCCCCC)n1 [S11N11 D8] | 2.5% |
| CCCCCCCCCCCNc1nc(NCCCN2CCN(C)CC2)nc(SCCCCCCCCCCC)n1 [S11N11 D9] | 4.9% |
| CCCCCCCCCCCNc1nc(NCC2CCN(C)CC2)nc(SCCCCCCCCCCC)n1 [S11N11 D10] | 5.6% |
| CCCCCCCCCCCCNc1nc(NCCN(C)C)nc(SCCCCCCCCCCC)n1 [S11N12 D1] | 16.2% |
| CCCCCCCCCCCCNc1nc(NCCN2CCOCC2)nc(SCCCCCCCCCCC)n1 [S11N12 D2] | 3.1% |
| CCCCCCCCCCCCNc1nc(NCCN2CCCC2)nc(SCCCCCCCCCCC)n1 [S11N12 D3] | 22.8% |
